# Measurements published in paper PMC9225715, “Development of PD3 and PD3-B for PDEδ inhibition to modulate KRAS activity” (Journal of Enzyme Inhibition and Medicinal Chemistry, 2022).
# Target: T1, PDEδ (Homo sapiens, UniProt O43924)
# T1 construct: made in house; host or cells: E. coli BL21(DE3)
# Experiment: Affinity pull-down experiment with bacterial lysate overexpressing PDEδ
# Assay type: binding
# Details: 100 µM PD3-B on NeutrAvidin resin, bacterial lysate 150 µg, DMSO control
# Experimental: We subsequently investigated whether PD3-B (5) specifically identifies PDEδ in the complex proteome of bacterial lysate using an affinity pull-down experiment (Figure 5). 100 µM PD3-B (5) was initially incubated with NeutrAvidin resin before incubation with bacterial lysate (150 µg) overexpressing PDEδ. For elution of the bound proteins, an elution buffer (2% SDS in PBS) was added to the resin and gently eluted at room temperature due to the noncovalent interaction between PD3-B (5) and the target protein PDEδ. The eluted samples were subjected to SDS–PAGE (18% polyacrylamide gel), and then the gels were stained with colloidal Coomassie brilliant blue solution to visualise the bound proteins. DMSO was used as a negative control. […] In addition, the intensity of the PDEδ band increased depending on the concentration of PD3-B (5) (Figure 5(B)).
# Figure 5. Affinity pull-down assay of bacterial lysate (PDEδ overexpressed) with PD3-B. NeutrAvidin resin was incubated with PD3-B (100 μM) followed by bacterial lysate (150 μg) in PBS buffer. Then, bound proteins were eluted by adding elution buffer (2% SDS in PBS) at room temperature. The eluted samples were subjected to SDS–PAGE (18% polyacrylamide gel). The gels were stained with colloidal Coomassie brilliant blue solution. (A) Colloidal CBB staining of SDS–PAGE gel. Lys: bacterial lysate, FT: flow through in step 1. […]
# T1 sequence (O43924 whole entry): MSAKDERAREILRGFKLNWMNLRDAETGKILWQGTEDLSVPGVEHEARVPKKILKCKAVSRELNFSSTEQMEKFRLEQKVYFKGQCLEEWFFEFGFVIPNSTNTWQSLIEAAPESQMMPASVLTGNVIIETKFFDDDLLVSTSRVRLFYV
structure (smiles),measurement,value
"Cc1ccc(-c2nc3ccccc3c3c(-c4cn(CCOCCOCCOCCNC(=O)CCCC[C@H]5SC[C@@H]6NC(=O)N[C@@H]65)nn4)c4ccccn4c23)cc1 [PD3-B, 5-((3aS,4R,6aR)-2-oxohexahydro-1H-thieno[3,4-d]imidazol-4-yl)-N-(2–(2–(2-(2-(4–(6-(p-tolyl)indolizino[3,2-c]quinolin-12-yl)-1H-1,2,3-triazol-1-yl)ethoxy)ethoxy)ethoxy)ethyl)pentanamide]",Pull down of PDEδ,PDEδ (20 kDa) was only detected in PD3-B (5)
